Test results reported in paper PMC11071649, “Synthesis and Selective Anticancer Activity Evaluation of 2-phenylacrylonitrile Derivatives as Tubulin Inhibitors” (Current Medicinal Chemistry, 2024).
Like-named read-outs stand apart in the source and are kept apart here.

Assays:
Format in all cases: cell-based, human
[1] = test system: A549 lung cancer cell; assay: MTT anti-proliferative assay, A549; details: for IC50: MTT, 48 h
Method: (§1) The anti-proliferation activities of the synthesized analogs were assessed by an in vitro MTT assay conducted on thirteen human cell lines. Their cytotoxic activities were evaluated by measuring the inhibition of net cell growth. […]
(§2) 1.6. Cell lines and cell culture
(§3) MTT was purchased from Sigma-Aldrich Co. (St. Louis, MO, USA). The PI and Annexin V-FITC apoptosis detection kit were purchased from Invitrogen (Eugene, OR, USA). All human cell lines were used in this study. […]
(§4) cell, MCF-7 breast cancer cell, MCF-10A normal breast cell, Raji B lymphoblastoid cell and diffuse large B-cell lymphoma SU-DHL-10 cell were initially purchased from American Type Culture Collection (ATCC, Manassas, Virginia). media, DMEM, and FBS were provided from Gibco Company.
(§5) 1.7. Cell growth inhibition assay (MTT assay)
(§6) The experiment was carried out according to the method of reference. Briefly, cells were plated in 96-well plates at a den- […]
(§7) the anti-proliferative activities were determined by MTT assay. […]
(§8) (Becton-Dickinson, Franklin Lakes, NJ). […]

[2] = test system: AGS gastric cancer cell; assay: MTT anti-proliferative assay, AGS; details: for IC50: MTT, 48 h
Method: as §1, §2, §3, §4, §5, §6, §7, §8

[3] = test system: BEL-7402 liver cancer cell; assay: MTT anti-proliferative assay, BEL-7402; details: for IC50: MTT, 48 h
Method: as §1, §2, §3, §4, §5, §6, §7, §8

[4] = test system: HCT116 colectal cancer cell; assay: MTT anti-proliferative assay, HCT116; details: for IC50: MTT, 48 h
Method: as §1, §2, §3, §4, §5, §6, §7, §8

[5] = test system: HeLa cervical cancer cell; assay: MTT anti-proliferative assay, HeLa; details: for IC50: MTT, 48 h
Method: as §1, §2, §3, §4, §5, §6, §7, §8

[6] = test system: HepG2 hepatoma cell; assay: MTT anti-proliferative assay, HepG2; details: for IC50: MTT, 48 h, read-out: IC50 HepG-2
Method: as §1, §2, §3, §4, §5, §6, §7, §8

[7] = test system: L-02 normal liver cell; assay: MTT assay, L-02 normal cells; details: 48 h
Method: as §1, §2, §3, §4, §5, §6, §7, §8

[8] = test system: MGC-803 late stage differentiation gastric cancer cell; assay: MTT anti-proliferative assay, MGC-803; details: for IC50: MTT, 48 h
Method: as §1, §2, §3, §4, §5, §6, §7, §8

[9] = test system: MCF-7 breast cancer cell; assay: MTT anti-proliferative assay, MCF-7; details: for IC50: MTT, 48 h
Method: as §1, §2, §3, §4, §5, §6, §7, §8

[10] = test system: MCF-10A normal breast cell; assay: MTT assay, MCF-10A normal cells; details: 48 h
Method: as §1, §2, §3, §4, §5, §6, §7, §8

[11] = test system: Raji B lymphoblastoid cell; assay: MTT anti-proliferative assay, Raji; details: for IC50: MTT, 48 h, read-out: IC50 Raji
Method: as §1, §2, §3, §4, §5, §6, §7, §8

[12] = test system: SGC-7901 early differentiation gastric cancer cell; assay: MTT anti-proliferative assay, SGC-7901; details: for IC50: MTT, 48 h
Method: as §1, §2, §3, §4, §5, §6, §7, §8

[13] = test system: diffuse large B-cell lymphoma SU-DHL-10 cell; assay: MTT anti-proliferative assay, SU-DHL-10; details: for IC50: MTT, 48 h, read-out: IC50 SU-DHL-10
Method: as §1, §2, §3, §4, §5, §6, §7, §8

SMILES	IC50 [1] [µM]	IC50 [2] [µM]	IC50 [3] [µM]	IC50 ([4]; read-out: IC50 HCT-116) [µM]	IC50 [5] [µM]	IC50 [6] [µM]	IC50 [7] [µM]	IC50 [8] [µM]	IC50 [9] [µM]	IC50 [10] [µM]	IC50 [11] [µM]	IC50 [12] [µM]	IC50 [13] [µM]	SI (selectivity index), IC50 (L-02)/IC50 (AGS) [2]	SI (selectivity index), IC50 (L-02)/IC50 (HCT-116) [4]	SI (selectivity index), IC50 (L-02)/IC50 (SGC-7901) [12]	other results
N#C/C(=C\c1ccccc1)c1ccc(C(F)(F)F)cc1 [Compound 1f2c]	> 100	> 100	> 100	> 100	> 100	> 100	> 100	> 100	> 100	> 100	> 100	> 100	> 100	–	–	–	–
COc1cccc(-n2cc(/C=C(\C#N)c3ccc(OC(F)(F)F)cc3)nn2)c1 [Compound 7b]	–	–	–	–	–	–	–	–	–	–	–	–	–	–	–	–	IC50 ([1]; Homo sapiens, A549): > 100 µM; IC50 ([2]; Homo sapiens): > 100 µM; IC50 ([3]; Homo sapiens, Bel-7402): > 100 µM; IC50 ([4]; Homo sapiens, HCT-116): > 100 µM; IC50 ([5]; Homo sapiens, HeLa): > 100 µM; IC50 ([6]; Homo sapiens, HepG2): > 100 µM; IC50 ([7]; Homo sapiens): > 100 µM; IC50 ([8]; Homo sapiens, MGC-803): > 100 µM; IC50 ([9]; Homo sapiens, MCF7): > 100 µM; IC50 ([10]; Homo sapiens, MCF-10A): > 100 µM; IC50 ([11]; Homo sapiens, Raji): > 100 µM; IC50 ([12]; Homo sapiens, SGC-7901): > 100 µM; IC50 ([13]; Homo sapiens, SU-DHL10): > 100 µM
N#C/C(=C\c1ccccc1C(F)(F)F)c1ccc(C(F)(F)F)cc1 [Compound 1f2m]	> 100	> 100	> 100	> 100	> 100	> 100	> 100	> 100	> 100	> 100	> 100	> 100	> 100	> 2.1	> 1.7	–	SI (selectivity index), IC50 (L-02)/IC50 (A549) [1]: > 2.6
Cc1cccc(/C=C(\C#N)c2ccc(OC(F)(F)F)cc2)c1 [Compound 1a2q]	> 100	> 100	> 100	> 100	> 100	> 100	> 100	> 100	> 100	> 100	> 100	> 100	> 100	–	–	–	–
Cc1cc(C)c(/C=C(\C#N)c2ccc(C(F)(F)F)cc2)c(C)c1 [Compound 1f2r]	> 100	> 100	> 100	> 100	> 100	> 100	> 100	> 100	> 100	> 100	> 100	> 100	> 100	–	–	–	–
N#C/C(=C\c1cccs1)c1ccc(OC(F)(F)F)cc1 [Compound 1a3b]	> 100	89.8 ± 1	> 100	30.8 ± 2.9	> 100	> 100	> 100	41.5 ± 2.1	> 100	> 100	> 100	57.2 ± 14.3	> 100	> 2.3	> 1.8	> 1.7	SI (selectivity index), IC50 (L-02)/IC50 (A549) [1]: > 1.1; SI (selectivity index), IC50 (L-02)/IC50 (HepG-2) [6]: > 1.6; SI (selectivity index), IC50 (L-02)/IC50 (MGC-803) [8]: > 1.7
CN(C)c1ccc(/C=C(\C#N)c2ccc(OC(F)(F)F)cc2)cc1 [Compound 1a2h]	> 100	69.6 ± 15.7	24.1 ± 2.8	8.7 ± 1.7	> 100	> 100	> 100	16.8 ± 0.7	> 100	> 100	67.4 ± 31.7	19.7 ± 1.5	> 100	> 1.4	> 11.4	> 5.0	SI (selectivity index), IC50 (L-02)/IC50 (BEL-7402) [3]: > 4.1; SI (selectivity index), IC50 (L-02)/IC50 (MGC-803) [8]: > 5.9; SI (selectivity index), IC50 (L-02)/IC50 (Raji) [11]: > 1.4
N#C/C(=C\c1cccc(C(F)(F)F)c1)c1ccc(C(F)(F)F)cc1 [Compound 1f2l]	> 100	> 100	> 100	> 100	> 100	> 100	> 100	> 100	> 100	> 100	72.1 ± 7.2	> 100	50.1 ± 20.9	–	–	–	SI (selectivity index), IC50 (L-02)/IC50 (Raji) [11]: > 1.3; SI (selectivity index), IC50 (L-02)/IC50 (SU-DHL-10) [13]: > 1.9
CCc1ccc(/C=C(\C#N)c2cccc(OC(F)(F)F)c2)cc1 [Compound 1b2f]	> 100	43.8 ± 21.8	44.8 ± 10.6	> 100	> 100	72.9 ± 9.9	> 100	49.3 ± 0.3	> 100	> 100	> 100	61.7 ± 0.4	> 100	> 2.2	–	> 1.6	SI (selectivity index), IC50 (L-02)/IC50 (BEL-7402) [3]: > 2.2; SI (selectivity index), IC50 (L-02)/IC50 (HepG-2) [6]: > 1.9; SI (selectivity index), IC50 (L-02)/IC50 (MGC-803) [8]: > 2.0
CC(C)c1ccc(/C=C(\C#N)c2ccc(OC(F)(F)F)cc2)cc1 [Compound 1a2g]	71.6 ± 24.7	8.7 ± 2.1	> 100	57.4 ± 7.8	> 100	> 100	> 100	> 100	> 100	> 100	66.6 ± 13.3	89.9 ± 5.6	27.3 ± 5.3	> 11.4	> 1.7	> 1.1	SI (selectivity index), IC50 (L-02)/IC50 (A549) [1]: > 1.3; SI (selectivity index), IC50 (L-02)/IC50 (Raji) [11]: > 1.5; SI (selectivity index), IC50 (L-02)/IC50 (SU-DHL-10) [13]: > 3.6
N#C/C(=C\c1cccs1)c1ccc(C(F)(F)F)cc1 [Compound 1f3b]	> 100	65 ± 17.9	> 100	> 100	> 100	> 100	> 100	> 100	> 100	> 100	> 100	> 100	> 100	> 1.5	–	–	–
CCc1ccc(/C=C(\C#N)c2ccc(C(F)(F)F)cc2)cc1 [Compound 1f2p]	> 100	> 100	> 100	> 100	> 100	> 100	> 100	> 100	> 100	> 100	> 100	> 100	> 100	–	–	–	–
N#C/C(=C\c1ccc(Cl)cc1)c1ccc(OC(F)(F)F)cc1 [Compound 1a2c]	65.8 ± 8.9	18.6 ± 3	> 100	20.2 ± 1.7	72.3 ± 2.4	20.7 ± 1.4	> 100	35.2 ± 2.8	55.2 ± 2.8	> 100	55.1 ± 3.2	56.4 ± 9.7	> 100	> 5.3	> 4.9	> 1.7	SI (selectivity index), IC50 (L-02)/IC50 (A549) [1]: > 1.5; SI (selectivity index), IC50 (L-02)/IC50 (HeLa) [5]: > 1.3; SI (selectivity index), IC50 (L-02)/IC50 (HepG-2) [6]: > 4.8; SI (selectivity index), IC50 (L-02)/IC50 (MGC-803) [8]: > 2.8; SI (selectivity index), IC50 (MCF-10A)/IC50 (MCF-7) [9]: > 1.8; SI (selectivity index), IC50 (L-02)/IC50 (Raji) [11]: > 1.8
N#C/C(=C\c1ccccc1Br)c1ccc(C(F)(F)F)cc1 [Compound 1f2i]	> 100	42 ± 11.7	> 100	> 100	> 100	> 100	> 100	> 100	> 100	> 100	> 100	> 100	> 100	> 2.3	–	–	–
